Data published in patent US9061980B2, “Organic compounds” (NABRIVA THERAPEUTICS, AG, priority 2007, dated 2015).
In brackets after ≈: the same amount, converted by molar mass. Like-named read-outs stand apart in the source and are kept apart here.

Columns and labels:
Assay type in all cases: cell-based
[1] = test system: Escherichia coli ATCC25922 B1; test: MIC determination according to CLSI; details: Escherichia coli ATCC25922, strain B1
Text: (§1) For example, the compounds of the present invention show antimicrobial, e.g. antibacterial, activity against gram positive bacteria, such as coagulase-positive and coagulase-negative Staphylococci, e.g. Staphylococcus aureus, Styphylococcus epidermis, Staphylococcus haemolyticus, Streptococci, e.g. Streptococcus pyogenes, Streptococcus pneumoniae, Streptococcus agalacticae, Enterococci, e.g. Enterococcus faecium and Moraxellaceae, e.g. Moraxella catarrhalis, Pasteurellaceae, e.g. Haemophilus influenzae, as well as against Mycoplasmactaceae, Chlamydiaceae, e.g. Chlamydia trachomatis, Chlamydia pneumoniae and obligatory anaerobes, e.g. Bacteroides fragilis, Clostridium difficile; in vitro in the Agar Dilution Test or Microdilution Test according to the Clinical and Laboratory Standards Institute (CLSI, former National Committee for Clinical Laboratory Standards (NCCLS) 2006, Document M7-A7 Vol. 26, No. 2: “Methods for dilution Antimicrobial Susceptibility Tests for Bacteria that Grow Aerobically—Seventh Edition, Approved Standard”; and in the in vitro determination of the antibacterial activity against anaerobic bacteria according to National Committee for Clinical Laboratory Standards (NCCLS) VOL. 24, No. 2, M11-A5, Methods for Antimicrobal Susceptibility Testing of Anaerobic Bacteria; Approved Standard; Sixth Edition (2004) and in vivo in the septicaemic mouse model against Staphylococcus aureus.
(§2) The antibacterial activity expressed as minimal inhibitory concentration (MIC) was determined according to the approved standard reference recommendations of CLSI (former NCCLS).

[2] = test system: Staphylococcus aureus (MSSA) ATCC29213 B7; test: MIC determination according to CLSI; details: Staphylococcus aureus (MSSA) ATCC29213, strain B7
Text: as §1, §2

[3] = test system: Enterococcus faecalis ATCC51299 B5; test: MIC determination according to CLSI; details: Enterococcus faecalis ATCC51299, strain B5
Text: as §1, §2

[4] = test system: Moraxella catarrhalis ATCC43618 B407; test: MIC determination according to CLSI; details: Moraxella catarrhalis ATCC43618, strain B407
Text: as §1, §2

[5] = test system: Enterococcus faecalis ATCC29212 B4; test: MIC determination according to CLSI; details: Enterococcus faecalis ATCC29212, strain B4
Text: as §1, §2

[6] = test system: Streptococcus pneumoniae ATCC49619 B11; test: MIC determination according to CLSI; details: Streptococcus pneumoniae ATCC49619, strain B11
Text: as §1, §2

[7] = test system: Staphylococcus aureus (MSSA) ATCC10390 B6; test: MIC determination according to CLSI; details: Staphylococcus aureus (MSSA) ATCC10390, strain B6
Text: as §1, §2

[8] = test system: Staphylococcus aureus, Enterococcus faecalis, Streptococcus pneumoniae, Moraxella catarrhalis and Escherichia coli; test: Antibacterial activity (MIC) against panel of clinical relevant bacterial pathogens; details: for activity against the clinical relevant bacterial pathogens: in vitro, statement in words
Procedure: as §2

`C=C[C@]1(C)C[C@@H](OC(=O)CSc2ccc(F)cc2F)[C@]2(C)C(C)CCC3(CCC(=O)C32)[C@@H](C)[C@@H]1O` (stereo partly shown) [Example 6, 14-O-[(2,4-Difluoro-phenylsulfanyl)-acetyl]-mutilin] gave an MIC ([1]; read-out: MIC) greater than 25.6 mg/L, an MIC ([2]; read-out: MIC) of 0.1 mg/L (≈ 0.197 µM) and an MIC ([3]; read-out: MIC) greater than 25.6 mg/L. For the same molecule, the MIC ([4]; read-out: MIC) was 0.05 mg/L (≈ 0.0987 µM), the MIC ([5]; read-out: MIC) was greater than 25.6 mg/L and the MIC ([6]; read-out: MIC) was 0.32 mg/L (≈ 0.632 µM). For the same molecule, the MIC ([7]; read-out: MIC) was 0.1 mg/L (≈ 0.197 µM).

`C=C[C@]1(C)C[C@@H](OC(=O)CSc2cccc(OC)c2)[C@]2(C)C(C)CCC3(CCC(=O)C32)[C@@H](C)[C@@H]1O` (stereo partly shown) [Example 10, 14-O-[(3-Methoxy-phenylsulfanyl)-acetyl]-mutilin] gave an MIC ([1]; read-out: MIC) greater than 25.6 mg/L, an MIC ([2]; read-out: MIC) of 0.025 mg/L (≈ 0.0499 µM) and an MIC ([3]; read-out: MIC) greater than 25.6 mg/L. It also gave an MIC ([4]; read-out: MIC) of no more than 0.0125 mg/L, an MIC ([5]; read-out: MIC) greater than 25.6 mg/L and an MIC ([6]; read-out: MIC) of 0.04 mg/L (≈ 0.0799 µM). The MIC ([7]; read-out: MIC) was 0.025 mg/L (≈ 0.0499 µM) and the “activity against the clinical relevant bacterial pathogens” value (shortened to “activity”) [8] was “very good activity”.

`C=C[C@]1(C)C[C@@H](OC(=O)COc2ccccc2O)[C@]2(C)C(C)CCC3(CCC(=O)C32)[C@@H](C)[C@@H]1O` (stereo partly shown) [Example 17, 14-O-[(2-Hydroxy-phenoxy)-acetyl]-mutilin] gave an MIC ([1]; read-out: MIC) greater than 6.4 mg/L, an MIC ([2]; read-out: MIC) of 0.05 mg/L (≈ 0.106 µM) and an MIC ([3]; read-out: MIC) greater than 6.4 mg/L. It also gave an MIC ([4]; read-out: MIC) of 0.0125 mg/L (≈ 0.0266 µM), an MIC ([5]; read-out: MIC) greater than 6.4 mg/L and an MIC ([6]; read-out: MIC) of 0.16 mg/L (≈ 0.34 µM). For the same molecule, the MIC ([7]; read-out: MIC) was 0.05 mg/L (≈ 0.106 µM).

`C=C[C@]1(C)C[C@@H](OC(=O)CSc2ccccc2O)[C@]2(C)C(C)CCC3(CCC(=O)C32)[C@@H](C)[C@@H]1O` (stereo partly shown) [Example 9, 14-O-[(2-Hydroxy-phenylsulfanyl)-acetyl]-mutilin] was tested, and the MIC ([1]; read-out: MIC) was greater than 25.6 mg/L, the MIC ([2]; read-out: MIC) was no more than 0.0125 mg/L and the MIC ([3]; read-out: MIC) was greater than 25.6 mg/L. For the same molecule, the MIC ([4]; read-out: MIC) was no more than 0.0125 mg/L, the MIC ([5]; read-out: MIC) was greater than 25.6 mg/L and the MIC ([6]; read-out: MIC) was 0.16 mg/L (≈ 0.329 µM). For the same molecule, the MIC ([7]; read-out: MIC) was no more than 0.0125 mg/L.

In the case of `C=C[C@]1(C)C[C@@H](OC(=O)COc2cccc(O)c2)[C@]2(C)C(C)CCC3(CCC(=O)C32)[C@@H](C)[C@@H]1O` (stereo partly shown) [Example 15, 14-O-[(3-Hydroxy-phenoxy)-acetyl]-mutilin], the MIC ([1]; read-out: MIC) is reported as greater than 25.6 mg/L, the MIC ([2]; read-out: MIC) is reported as 0.025 mg/L (≈ 0.0531 µM) and the MIC ([3]; read-out: MIC) is reported as 25.6 mg/L (≈ 54.4 µM). It also gave an MIC ([4]; read-out: MIC) of no more than 0.0125 mg/L, an MIC ([5]; read-out: MIC) of 12.8 mg/L (≈ 27.2 µM) and an MIC ([6]; read-out: MIC) of 0.04 mg/L (≈ 0.085 µM). The MIC ([7]; read-out: MIC) was 0.025 mg/L (≈ 0.0531 µM) and the “activity” value [8] was “very good activity”.

In the case of `C=C[C@]1(C)C[C@@H](OC(=O)CSc2cccc(C)c2)[C@]2(C)C(C)CCC3(CCC(=O)C32)[C@@H](C)[C@@H]1O` (stereo partly shown) [Example 14, 14-O-[(3-Methyl-phenylsulfanyl)-acetyl]-mutilin], the MIC ([1]; read-out: MIC) is reported as greater than 6.4 mg/L, the MIC ([2]; read-out: MIC) is reported as 0.05 mg/L (≈ 0.103 µM) and the MIC ([3]; read-out: MIC) is reported as greater than 6.4 mg/L. It also gave an MIC ([4]; read-out: MIC) of 0.0125 mg/L (≈ 0.0258 µM), an MIC ([5]; read-out: MIC) greater than 6.4 mg/L and an MIC ([6]; read-out: MIC) of 0.16 mg/L (≈ 0.33 µM). The MIC ([7]; read-out: MIC) was 0.025 mg/L (≈ 0.0516 µM).

Molecule `C=C[C@]1(C)C[C@@H](OC(=O)CSc2cccc(F)c2)[C@]2(C)C(C)CCC3(CCC(=O)C32)[C@@H](C)[C@@H]1O` (stereo partly shown) [Example 1, 14-O-[(3-Fluoro-phenylsulfanyl)-acetyl]-mutilin] has an MIC ([1]; read-out: MIC) greater than 25.6 mg/L, an MIC ([2]; read-out: MIC) of no more than 0.0125 mg/L and an MIC ([3]; read-out: MIC) greater than 25.6 mg/L. The MIC ([4]; read-out: MIC) was no more than 0.0125 mg/L, the MIC ([5]; read-out: MIC) was 3.2 mg/L (≈ 6.55 µM) and the MIC ([6]; read-out: MIC) was 0.04 mg/L (≈ 0.0819 µM). For the same molecule, the MIC ([7]; read-out: MIC) was no more than 0.0125 mg/L, the “factor by which MICs are lower than the MICs of the comparator compounds” value ([8]; against at least one of the strains shown in Table 1, comparators examples 3, 6, 9, 12, 14 and 17) was no less than 2 and the “activity” value [8] was “very good activity”.

`C=C[C@]1(C)C[C@@H](OC(=O)CSc2ccccc2F)[C@]2(C)C(C)CCC3(CCC(=O)C32)[C@@H](C)[C@@H]1O` (stereo partly shown) [Example 3, 14-O-[(2-Fluoro-phenylsulfanyl)-acetyl]-mutilin] was tested, and the MIC ([1]; read-out: MIC) was greater than 25.6 mg/L, the MIC ([2]; read-out: MIC) was 0.05 mg/L (≈ 0.102 µM) and the MIC ([3]; read-out: MIC) was greater than 25.6 mg/L. For the same molecule, the MIC ([4]; read-out: MIC) was 0.025 mg/L (≈ 0.0512 µM), the MIC ([5]; read-out: MIC) was greater than 25.6 mg/L and the MIC ([6]; read-out: MIC) was 0.16 mg/L (≈ 0.327 µM). The MIC ([7]; read-out: MIC) was 0.05 mg/L (≈ 0.102 µM).

For `C=C[C@]1(C)C[C@@H](OC(=O)CSc2ccccc2OC)[C@]2(C)C(C)CCC3(CCC(=O)C32)[C@@H](C)[C@@H]1O` (stereo partly shown) [Example 12, 14-O-[(2-Methoxy-phenylsulfanyl)-acetyl]mutilin], the MIC ([1]; read-out: MIC) was greater than 25.6 mg/L, the MIC ([2]; read-out: MIC) was 0.2 mg/L (≈ 0.399 µM) and the MIC ([3]; read-out: MIC) was greater than 25.6 mg/L. It also gave an MIC ([4]; read-out: MIC) of 0.1 mg/L (≈ 0.2 µM), an MIC ([5]; read-out: MIC) greater than 25.6 mg/L and an MIC ([6]; read-out: MIC) of 0.16 mg/L (≈ 0.32 µM). It also gave an MIC ([7]; read-out: MIC) of 0.2 mg/L (≈ 0.399 µM).

`C=C[C@]1(C)C[C@@H](OC(=O)CSc2cccc(O)c2)[C@]2(C)C(C)CCC3(CCC(=O)C32)[C@@H](C)[C@@H]1O` (stereo partly shown) [Example 7, 14-O-[(3-Hydroxy-phenylsulfanyl)-acetyl]-mutilin] was tested, and the MIC ([1]; read-out: MIC) was greater than 25.6 mg/L, the MIC ([2]; read-out: MIC) was no more than 0.0125 mg/L and the MIC ([3]; read-out: MIC) was greater than 25.6 mg/L. It also gave an MIC ([4]; read-out: MIC) of no more than 0.0125 mg/L, an MIC ([5]; read-out: MIC) greater than 25.6 mg/L and an MIC ([6]; read-out: MIC) of 0.02 mg/L (≈ 0.0411 µM). For the same molecule, the MIC ([7]; read-out: MIC) was no more than 0.0125 mg/L and the “activity” value [8] was “very good activity”.

For `C=C[C@]1(C)C[C@@H](OC(=O)COc2cccc(C)c2)[C@]2(C)[C@H](C)CC[C@]3(CCC(=O)[C@H]32)[C@@H](C)[C@@H]1O` [Example 19, 14-O-[(3-Methyl-phenoxy)-acetyl]-mutilin], the MIC [1] was greater than 6.4 mg/L, the MIC [2] was 0.05 mg/L (≈ 0.107 µM) and the MIC [3] was greater than 6.4 mg/L. For the same molecule, the MIC [4] was 0.0125 mg/L (≈ 0.0267 µM), the MIC [5] was greater than 6.4 mg/L and the MIC [6] was 0.64 mg/L (≈ 1.37 µM). The MIC [7] was 0.05 mg/L (≈ 0.107 µM).
